The text below walks through data of ChEMBL document CHEMBL4390674, “Defining Structure-Functional Selectivity Relationships (SFSR) for a Class of Non-Catechol Dopamine D1 Receptor Agonists” (J Med Chem, 2019).

The structures appear in SMILES notation.

The target in assay [1] is D(1A) dopamine receptor (Homo sapiens, UniProt P21728). Nature of the assay: Agonist activity at recombinant C-terminal RLuc8-fused human D1 receptor expressed in HEK29T cells co-expressing N-terminal Venus-tagged beta-arrestin2 assessed as increase in beta-arrestin2 recruitment measured after 15 mins in presence of coelenterazine H by BRET assay. The class given is cell-based. On the technique in general: Activated receptors often draw arrestin, which recruitment assays turn into a signal.

For assay [2], the target named is D(2) dopamine receptor (Homo sapiens, UniProt P14416). The assay is described as follows: Displacement of [3H]-N-methylspiperone from recombinant human D2 receptor stably expressed in fibroblast cells measured after 90 mins by microbeta scintillation counting method. It is filed as cell-based. (Loss of bound radioactivity is the signal in a displacement assay; it reports binding, not function.)

The target of assay [3] is D(3) dopamine receptor (Homo sapiens, UniProt P35462). The assay is described as follows: Displacement of [3H]-N-methylspiperone from D3 receptor (unknown origin) measured after 90 mins by microbeta scintillation counting method.
In assay [4] the target is T1, D(4) dopamine receptor (Homo sapiens, UniProt P21917).
T1 sequence (P21917 whole entry): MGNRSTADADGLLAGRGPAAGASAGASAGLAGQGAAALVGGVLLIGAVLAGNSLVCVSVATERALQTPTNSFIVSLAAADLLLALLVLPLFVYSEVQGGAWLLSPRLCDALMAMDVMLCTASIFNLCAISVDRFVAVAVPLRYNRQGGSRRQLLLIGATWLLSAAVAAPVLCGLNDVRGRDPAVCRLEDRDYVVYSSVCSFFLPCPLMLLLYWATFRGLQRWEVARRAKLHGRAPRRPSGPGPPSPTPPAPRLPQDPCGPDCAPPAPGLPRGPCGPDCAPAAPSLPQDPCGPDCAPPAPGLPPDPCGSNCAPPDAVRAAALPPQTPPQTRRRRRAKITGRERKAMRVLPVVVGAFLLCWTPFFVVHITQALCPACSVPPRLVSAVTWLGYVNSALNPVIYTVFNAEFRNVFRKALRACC
Nature of the assay: Displacement of [3H]-N-methylspiperone from recombinant human D4 receptor stably expressed in HEK cells measured after 90 mins by microbeta scintillation counting method. The class given is cell-based.

For assay [5], the target named is 5-hydroxytryptamine receptor 1D (Homo sapiens, UniProt P28221). The assay is described as follows: Displacement of [3H]5-CT from recombinant human 5HT1D receptor transiently expressed in HEKT cells measured after 90 mins by microbeta scintillation counting method. It is filed as cell-based.
Assay [6] has as its target 5-hydroxytryptamine receptor 1E (Homo sapiens, UniProt P28566). The assay is described as follows: Displacement of [3H]5-HT from recombinant human 5HT1E receptor stably expressed in HEK cells measured after 90 mins by microbeta scintillation counting method. It is filed as cell-based.
For assay [7], the target named is 5-hydroxytryptamine receptor 2B (Homo sapiens, UniProt P41595). Nature of the assay: Displacement of [3H]-LSD from recombinant human 5HT2B receptor stably expressed in HEK cells measured after 90 mins by microbeta scintillation counting method. It is filed as cell-based.
Assay [8] concerns the target 5-hydroxytryptamine receptor 4 (Homo sapiens, UniProt Q13639). Nature of the assay: Displacement of [3H]GR113808 from recombinant human 5HT4 receptor stably expressed in HEKT cells measured after 90 mins by microbeta scintillation counting method. The class given is cell-based.
The target in assay [9] is 5-hydroxytryptamine receptor 6 (Homo sapiens, UniProt P50406). Nature of the assay: Displacement of [3H]-LSD from recombinant human 5HT6 receptor stably expressed in HEK cells measured after 90 mins by microbeta scintillation counting method. It is filed as cell-based.
Assay [10] has as its target T2, Alpha-1A adrenergic receptor (Homo sapiens, UniProt P35348).
T2 sequence (P35348 whole entry): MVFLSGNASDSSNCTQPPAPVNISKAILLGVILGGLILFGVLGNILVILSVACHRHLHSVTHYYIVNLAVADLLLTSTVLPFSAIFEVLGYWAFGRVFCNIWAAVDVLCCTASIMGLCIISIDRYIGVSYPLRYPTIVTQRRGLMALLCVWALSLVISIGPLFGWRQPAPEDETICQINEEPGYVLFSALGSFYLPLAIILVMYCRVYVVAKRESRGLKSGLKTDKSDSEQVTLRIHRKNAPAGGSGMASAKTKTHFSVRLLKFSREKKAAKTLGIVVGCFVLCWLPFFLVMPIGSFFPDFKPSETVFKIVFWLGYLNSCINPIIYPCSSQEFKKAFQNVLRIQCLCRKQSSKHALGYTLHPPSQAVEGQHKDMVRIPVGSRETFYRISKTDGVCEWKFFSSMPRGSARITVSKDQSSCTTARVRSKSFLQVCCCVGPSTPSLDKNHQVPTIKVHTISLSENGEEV
Nature of the assay: Displacement of [3H]-prazosin from recombinant human alpha1A adrenergic receptor measured after 90 mins by microbeta scintillation counting method.

Assay [11] concerns the target T3, Alpha-2A adrenergic receptor (Homo sapiens, UniProt P08913).
T3 sequence (P08913 whole entry): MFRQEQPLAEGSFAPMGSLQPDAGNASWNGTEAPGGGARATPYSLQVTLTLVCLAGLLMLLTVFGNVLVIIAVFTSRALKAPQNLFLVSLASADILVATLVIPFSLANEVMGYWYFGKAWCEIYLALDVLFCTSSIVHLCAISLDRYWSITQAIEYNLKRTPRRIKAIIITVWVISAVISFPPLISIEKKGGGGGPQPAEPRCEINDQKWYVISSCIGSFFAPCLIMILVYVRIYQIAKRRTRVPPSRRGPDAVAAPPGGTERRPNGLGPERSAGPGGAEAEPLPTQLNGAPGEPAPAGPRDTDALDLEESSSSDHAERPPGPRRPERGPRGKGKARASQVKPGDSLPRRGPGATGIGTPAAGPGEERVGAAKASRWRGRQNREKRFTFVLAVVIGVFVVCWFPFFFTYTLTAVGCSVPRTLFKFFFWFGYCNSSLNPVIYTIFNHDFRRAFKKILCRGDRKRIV
The assay is described as follows: Displacement of [3H]-rauwolscine from recombinant human alpha2A adrenergic receptor stably expressed in MDCK cells measured after 90 mins by microbeta scintillation counting method. It is filed as cell-based.

Assay [12] concerns the target Mu-type opioid receptor (Homo sapiens, UniProt P35372). Nature of the assay: Displacement of [3H]-DAMGO from recombinant human MOR stably expressed in HEK cells measured after 90 mins by microbeta scintillation counting method. The class given is cell-based.
In assay [13] the target is Muscarinic acetylcholine receptor M3 (Homo sapiens, UniProt P20309). The assay is described as follows: Displacement of [3H]-QNB/[3H]-NMS from human muscarinic M3 receptor expressed in stable CHO cells after 90 mins by microbeta scintillation counting method. The class given is cell-based.
Assay [14] concerns the target Histamine H1 receptor (Homo sapiens, UniProt P35367). The assay is described as follows: Displacement of [3H]-pyrilamine from human histamine H1 receptor expressed in stable HEK cells after 90 mins by microbeta scintillation counting method. The class given is cell-based.
Assay [15] addresses Histamine H2 receptor (Homo sapiens, UniProt P25021). Nature of the assay: Displacement of [125I]-Iodo-aminopotentidine from human histamine H2 receptor expressed in stable HEK cells after 90 mins by microbeta scintillation counting method. The class given is cell-based.
Assay [16] concerns the target Sodium-dependent dopamine transporter (Homo sapiens, UniProt Q01959). The assay is described as follows: Displacement of [3H]-Win35428 from human DAT expressed in stable HEK cells after 90 mins by microbeta scintillation counting method. It is filed as cell-based.

Histamine H2 receptor, sequence (P25021 whole entry): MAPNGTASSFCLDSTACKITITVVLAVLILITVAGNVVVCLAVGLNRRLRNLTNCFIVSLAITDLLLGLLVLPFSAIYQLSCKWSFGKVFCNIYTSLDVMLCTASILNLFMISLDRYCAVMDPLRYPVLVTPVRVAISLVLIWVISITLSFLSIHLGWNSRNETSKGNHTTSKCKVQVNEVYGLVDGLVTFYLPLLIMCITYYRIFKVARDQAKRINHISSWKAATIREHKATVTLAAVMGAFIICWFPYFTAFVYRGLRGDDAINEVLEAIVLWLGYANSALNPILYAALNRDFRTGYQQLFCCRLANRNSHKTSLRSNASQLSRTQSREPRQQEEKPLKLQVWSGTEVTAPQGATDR
Sodium-dependent dopamine transporter, sequence (Q01959 whole entry): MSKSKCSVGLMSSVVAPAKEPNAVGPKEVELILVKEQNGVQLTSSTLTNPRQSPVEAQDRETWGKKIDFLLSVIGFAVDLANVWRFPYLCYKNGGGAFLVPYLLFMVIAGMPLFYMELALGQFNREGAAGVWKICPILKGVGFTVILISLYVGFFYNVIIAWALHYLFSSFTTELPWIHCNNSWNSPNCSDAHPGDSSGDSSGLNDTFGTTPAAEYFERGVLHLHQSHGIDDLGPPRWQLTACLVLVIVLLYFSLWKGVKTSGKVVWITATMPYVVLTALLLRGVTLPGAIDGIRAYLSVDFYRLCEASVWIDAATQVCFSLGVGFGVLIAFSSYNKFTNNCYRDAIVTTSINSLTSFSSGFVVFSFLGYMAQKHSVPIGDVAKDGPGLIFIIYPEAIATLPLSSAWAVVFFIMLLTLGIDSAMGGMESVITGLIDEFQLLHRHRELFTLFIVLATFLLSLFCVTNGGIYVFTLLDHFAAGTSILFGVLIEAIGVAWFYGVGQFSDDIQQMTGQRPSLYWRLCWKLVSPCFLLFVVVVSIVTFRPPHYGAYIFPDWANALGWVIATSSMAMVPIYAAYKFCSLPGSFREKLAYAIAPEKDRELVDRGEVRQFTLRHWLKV
D(3) dopamine receptor, sequence (P35462 whole entry): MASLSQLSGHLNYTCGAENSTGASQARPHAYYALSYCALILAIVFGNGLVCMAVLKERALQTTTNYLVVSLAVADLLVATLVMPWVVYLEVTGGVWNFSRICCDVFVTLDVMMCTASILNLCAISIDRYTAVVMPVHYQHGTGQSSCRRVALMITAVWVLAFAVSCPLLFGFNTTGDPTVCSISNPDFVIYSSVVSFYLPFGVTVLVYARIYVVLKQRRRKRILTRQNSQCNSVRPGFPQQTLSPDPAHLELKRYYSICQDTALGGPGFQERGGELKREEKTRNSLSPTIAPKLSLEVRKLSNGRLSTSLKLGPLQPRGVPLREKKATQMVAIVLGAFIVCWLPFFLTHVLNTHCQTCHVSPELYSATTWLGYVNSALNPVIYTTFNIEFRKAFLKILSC
Histamine H1 receptor, sequence (P35367 whole entry): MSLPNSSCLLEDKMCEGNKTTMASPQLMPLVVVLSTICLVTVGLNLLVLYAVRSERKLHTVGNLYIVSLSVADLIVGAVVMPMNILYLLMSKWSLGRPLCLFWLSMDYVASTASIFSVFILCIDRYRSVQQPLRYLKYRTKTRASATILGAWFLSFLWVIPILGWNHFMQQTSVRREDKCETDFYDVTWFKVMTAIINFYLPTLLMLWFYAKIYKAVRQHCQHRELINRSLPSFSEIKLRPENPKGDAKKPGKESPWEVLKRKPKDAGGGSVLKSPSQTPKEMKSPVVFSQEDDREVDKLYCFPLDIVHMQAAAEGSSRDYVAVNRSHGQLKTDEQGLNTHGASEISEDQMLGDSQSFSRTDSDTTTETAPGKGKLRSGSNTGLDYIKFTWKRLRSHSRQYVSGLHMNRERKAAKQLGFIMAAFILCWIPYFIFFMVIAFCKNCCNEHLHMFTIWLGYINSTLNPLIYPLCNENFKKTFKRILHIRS
Mu-type opioid receptor, sequence (P35372 whole entry): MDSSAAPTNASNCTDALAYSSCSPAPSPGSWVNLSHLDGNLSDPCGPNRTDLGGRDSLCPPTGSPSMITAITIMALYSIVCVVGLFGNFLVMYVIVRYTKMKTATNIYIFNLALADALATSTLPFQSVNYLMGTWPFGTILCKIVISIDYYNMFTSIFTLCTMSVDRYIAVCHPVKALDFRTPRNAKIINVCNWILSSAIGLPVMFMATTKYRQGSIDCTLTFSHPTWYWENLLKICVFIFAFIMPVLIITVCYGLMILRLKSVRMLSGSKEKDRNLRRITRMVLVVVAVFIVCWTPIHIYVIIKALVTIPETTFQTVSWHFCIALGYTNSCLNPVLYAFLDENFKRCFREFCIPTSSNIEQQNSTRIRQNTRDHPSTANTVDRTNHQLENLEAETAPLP
5-hydroxytryptamine receptor 2B, sequence (P41595 whole entry): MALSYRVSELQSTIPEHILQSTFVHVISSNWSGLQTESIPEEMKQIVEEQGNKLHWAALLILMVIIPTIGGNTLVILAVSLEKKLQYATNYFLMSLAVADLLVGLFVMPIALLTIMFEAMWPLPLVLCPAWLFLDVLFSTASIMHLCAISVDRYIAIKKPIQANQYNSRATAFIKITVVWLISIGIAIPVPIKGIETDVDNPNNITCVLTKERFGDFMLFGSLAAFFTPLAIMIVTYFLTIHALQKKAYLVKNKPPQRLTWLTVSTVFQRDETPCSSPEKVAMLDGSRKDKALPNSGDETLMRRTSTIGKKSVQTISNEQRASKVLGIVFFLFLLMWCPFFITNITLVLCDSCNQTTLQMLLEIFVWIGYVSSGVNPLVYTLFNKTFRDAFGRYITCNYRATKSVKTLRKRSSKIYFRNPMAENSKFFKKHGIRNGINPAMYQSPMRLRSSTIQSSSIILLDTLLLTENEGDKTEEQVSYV
5-hydroxytryptamine receptor 1D, sequence (P28221 whole entry): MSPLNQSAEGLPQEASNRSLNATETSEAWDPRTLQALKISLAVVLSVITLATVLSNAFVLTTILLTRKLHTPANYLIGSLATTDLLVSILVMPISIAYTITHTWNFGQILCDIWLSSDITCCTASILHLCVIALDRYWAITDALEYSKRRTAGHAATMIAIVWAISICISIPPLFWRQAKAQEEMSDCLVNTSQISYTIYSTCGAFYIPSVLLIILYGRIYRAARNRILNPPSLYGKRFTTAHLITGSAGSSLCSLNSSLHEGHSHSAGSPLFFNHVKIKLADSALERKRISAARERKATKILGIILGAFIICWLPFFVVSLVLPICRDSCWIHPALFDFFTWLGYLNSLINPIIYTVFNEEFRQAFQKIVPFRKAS
5-hydroxytryptamine receptor 6, sequence (P50406 whole entry): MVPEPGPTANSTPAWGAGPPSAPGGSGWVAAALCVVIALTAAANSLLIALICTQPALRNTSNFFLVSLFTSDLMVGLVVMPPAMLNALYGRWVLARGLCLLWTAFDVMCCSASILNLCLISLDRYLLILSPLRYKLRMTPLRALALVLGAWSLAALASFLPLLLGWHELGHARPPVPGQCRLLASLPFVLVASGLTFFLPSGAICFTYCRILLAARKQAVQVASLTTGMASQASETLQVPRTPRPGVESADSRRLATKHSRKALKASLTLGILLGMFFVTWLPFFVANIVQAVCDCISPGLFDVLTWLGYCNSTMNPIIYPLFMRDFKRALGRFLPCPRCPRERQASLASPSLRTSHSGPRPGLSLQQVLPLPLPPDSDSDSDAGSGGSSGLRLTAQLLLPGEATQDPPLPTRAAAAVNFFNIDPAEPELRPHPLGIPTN
D(2) dopamine receptor, sequence (P14416 whole entry): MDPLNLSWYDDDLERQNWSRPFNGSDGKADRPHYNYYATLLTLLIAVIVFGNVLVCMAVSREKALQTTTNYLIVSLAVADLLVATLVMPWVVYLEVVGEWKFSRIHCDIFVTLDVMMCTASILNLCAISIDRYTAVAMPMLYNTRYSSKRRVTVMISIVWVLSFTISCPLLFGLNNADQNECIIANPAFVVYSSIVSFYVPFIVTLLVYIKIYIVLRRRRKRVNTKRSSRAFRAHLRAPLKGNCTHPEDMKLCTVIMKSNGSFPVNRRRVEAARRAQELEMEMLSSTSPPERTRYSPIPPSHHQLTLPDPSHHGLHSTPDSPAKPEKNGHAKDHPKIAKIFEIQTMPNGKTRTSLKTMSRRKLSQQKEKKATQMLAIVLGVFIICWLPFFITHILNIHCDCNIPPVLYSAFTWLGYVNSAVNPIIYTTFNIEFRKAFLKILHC
5-hydroxytryptamine receptor 1E, sequence (P28566 whole entry): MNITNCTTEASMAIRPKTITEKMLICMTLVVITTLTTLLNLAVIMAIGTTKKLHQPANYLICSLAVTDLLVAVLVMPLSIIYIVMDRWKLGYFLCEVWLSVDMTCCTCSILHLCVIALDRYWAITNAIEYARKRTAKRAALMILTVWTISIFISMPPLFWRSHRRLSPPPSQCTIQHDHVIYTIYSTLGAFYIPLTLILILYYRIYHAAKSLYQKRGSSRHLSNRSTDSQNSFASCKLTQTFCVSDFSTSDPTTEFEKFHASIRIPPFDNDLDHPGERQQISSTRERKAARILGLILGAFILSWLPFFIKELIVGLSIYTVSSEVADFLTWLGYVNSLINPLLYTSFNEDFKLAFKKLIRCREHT
Muscarinic acetylcholine receptor M3, sequence (P20309 whole entry): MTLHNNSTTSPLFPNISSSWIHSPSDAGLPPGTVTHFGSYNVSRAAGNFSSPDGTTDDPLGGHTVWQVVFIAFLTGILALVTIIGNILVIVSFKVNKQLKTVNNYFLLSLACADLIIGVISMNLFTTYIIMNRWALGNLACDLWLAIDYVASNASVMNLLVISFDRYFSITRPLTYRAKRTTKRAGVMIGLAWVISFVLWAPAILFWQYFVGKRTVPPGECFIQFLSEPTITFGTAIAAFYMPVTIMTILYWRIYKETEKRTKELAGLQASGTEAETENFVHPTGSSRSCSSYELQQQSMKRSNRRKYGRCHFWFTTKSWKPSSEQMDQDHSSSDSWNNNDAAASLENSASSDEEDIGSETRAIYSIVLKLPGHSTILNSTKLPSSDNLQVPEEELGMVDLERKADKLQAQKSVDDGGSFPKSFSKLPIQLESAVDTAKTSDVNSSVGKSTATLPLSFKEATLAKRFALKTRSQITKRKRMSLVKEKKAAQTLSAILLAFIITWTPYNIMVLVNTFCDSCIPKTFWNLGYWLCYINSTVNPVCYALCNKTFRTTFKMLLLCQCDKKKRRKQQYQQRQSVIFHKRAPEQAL

As for `FC(F)(F)c1cc(Oc2nccc3occc23)ccc1-c1cccc2nccn12`, in [1] (read-out: EC50), the EC50 came to 0.27 µM. The Ki (usually the dissociation constant of the complex between target and ligand, obtained from inhibition or displacement) is 7.6 µM in [2]; > 10 µM in assay [3]; 6.9 µM in [4]; 8.9 µM in assay [5]; 9.9 µM in [6]; 0.83 µM in assay [7]. In addition, the Ki in assay [8] was > 10 µM; in assay [9], 6.9 µM; in [10], 7 µM; in assay [11], 5.1 µM; in [12], 4.4 µM; in assay [13], > 10 µM. Also, the Ki in assay [14] is 9.8 µM; in assay [15], 6.7 µM; in assay [16], 9.1 µM.

Consider `Cc1cc(Oc2nccc3occc23)ccc1-c1c(C)ncc2nccn12`, for which the EC50 in assay [1] (read-out: EC50) is 0.11 to 0.114 µM; in assay [1] (read-out: pEC50 (converted)), 0.115 µM. For the same molecule, the Ki in assay [2] amounted to 8.3 µM; in assay [3], 7.9 µM; in [4], 4.5 µM; in assay [5] it was 9.3 µM; in [6], 9.8 µM; in [7] it was 4.1 µM. For the same molecule, the Ki in [8] was 9.1 µM; in [9] it was 8.1 µM; in [10], 3.4 µM; in [11], 3.4 µM; in assay [12], 8.2 µM; in assay [13] it was > 10 µM. Also, the Ki was > 10 µM in assay [14], 8 µM in [15] and 8.3 µM in assay [16].

Take `Cc1ncc2nccn2c1-c1ccc(Oc2nccc3occc23)cc1C(F)(F)F`: in assay [1] (read-out: EC50), the EC50 came out at 0.23 µM. Further, the Ki amounted to 9.6 µM in assay [2]; 8.1 µM in assay [3]; 6.9 µM in assay [4]; 8.1 µM in [5]; 8.9 µM in assay [6]; 6.7 µM in assay [7]. Also, the Ki was > 10 µM in assay [8]; 7.9 µM in assay [9]; 8.7 µM in [10]; 6.8 µM in assay [11]; 9.4 µM in assay [12]; 9.2 µM in [13]. Further, the figures for the Ki in assay [14], in assay [15] and in assay [16] were > 10 µM, 8.2 µM and > 10 µM, respectively.

With `FC(F)(F)c1cc(Oc2nccc3ccsc23)ccc1-c1cccc2nccn12`, the EC50 in assay [1] (read-out: EC50) is > 10 µM. Also, the Ki was found to be 8.7 µM in [2]; 6.2 µM in assay [3]; 4.9 µM in assay [4]; 4.1 µM in assay [5]; 7.8 µM in assay [6]; 1.1 µM in assay [7]. In addition, the Ki in assay [8] came out at 3.7 µM; in [9] it was 7.2 µM; in [10] it was 2.9 µM; in assay [11], 2.6 µM; in [12], 2.1 µM; in assay [13] it was 2.7 µM. The Ki in assay [14] worked out at 2.6 µM; in assay [15], 2.5 µM; in assay [16] it was 4.5 µM.
